Test results reported in patent US20220151276A1, “COMPOSITION CONTAINING PLANT-DERIVED EXTRACT AND/OR PLANT-DERIVED PROCESSED PRODUCT” (OTSUKA PHARMACEUTICAL CO., LTD., priority 2019, published 2022).

Test system: healthy adult males
Assay: Incremental loading exercise test with bicycle
Assay type: in vivo, human
Method: For 25 healthy adult males, 3 dosages of kaempferol-containing cookie-shaped foods (containing 2.5 mg, 10 mg, or 25 mg of kaempferol, respectively) and a placebo cookie-shaped food (kaempferol-free) were used as test foods, and a once-a-day ingestion for consecutive 8 days were repeated four times by the crossover method. 3 hours after a test food ingestion on day 1 (Single ingestion) and on day 8 (Consecutive ingestion), an incremental loading exercise with bicycle was performed while sampling the exhaled gas to determine the oxygen consumption. The Heart rate and the rating of perceived exertion were monitored during exercise. Dynamic/kinetic visual acuity was measured before and after the exercise. Details of each endpoint are given below. Oxygen consumption (VO2) (mL/min/kg) was calculated from the difference between the amount of oxygen in the inhaled gas (atmosphere) and the amount of oxygen in the exhaled gas. When a weight of the pedal approaches a subject's limit during incremental loading exercise with bicycle, a heart rate (HR) is maximized. The increase in heart rate from the resting heart rate to the maximum heart rate was defined as 100% of exercise intensity, and the oxygen consumption (VO2) was plotted at each exercise intensity. That is, for example, an exercise intensity of 50% HR is calculated by the following equation: 100×(x−Resting heart rate)/(Maximum heart rate−Resting heart rate)=50% HR, and the oxygen consumption (VO2) in which the heart rate is the “x” means “oxygen consumption (VO2) at an exercise intensity of 50% HR”. Oxygen consumption efficiency was calculated by the following equation. Oxygen consumption efficiency (VO2/VE)=oxygen consumption/ventilation The oxygen uptake efficiency slope (OUES) was calculated using the ventilation and VO2 every 1 min from the beginning of the incremental loading exercise. Specifically, a graph of linearity was obtained by plotting “logarithmic value of ventilation (VE)” on the horizontal axis and “VO2” on the vertical axis, and the slope of the linear function graph was defined as OUES. For details, see Non-Patent Document 5. Exercise intensity (% HR) and rating of perceived exertion (RPE) at the oxygen consumption (VO2) of 14 mL/min/kg and 24.5 mL/min/kg in incremental loading exercise (the levels of stair climbing and jogging, respectively) were evaluated. The calculation methods for oxygen consumption (VO2) and exercise intensity (% HR) are the same as those described above. The perceived exertion was rated by the subject according to the following table at 1-minute intervals from the beginning of the incremental loading exercise, and the scales rated by each subject were averaged to give the rating of perceived exertion (RPE).

[1] = single and consecutive ingestion, at VO2 of 14 mL/min/kg (stair climbing) and 24.5 mL/min/kg (jogging), compared with no intake of kaempferol
[2] = single and consecutive ingestion, incremental loading exercise, compared with no intake of kaempferol

Question: How did the “oxygen consumption efficiency (VO2/VE)” value (single and consecutive ingestion, after initiation of incremental loading exercise, compared with no intake of kaempferol) turn out when `O=c1c(O)c(-c2ccc(O)cc2)oc2cc(O)cc(O)c12` [kaempferol] was run?
Answer: increased oxygen consumption efficiency

Question: And the “exercise intensity (% HR) at given oxygen consumption” value [1]?
Answer: decreased exercise intensity

Question: And the “rating of perceived exertion (RPE)” value [1]?
Answer: decreased rating of perceived exertion

Question: What about the “maximum exercise load (Pedal Weight (watt))” value [2] of the same molecule?
Answer: increased maximum exercise load

Question: And the “maximum oxygen consumption (VO2peak)” value [2]?
Answer: increased maximum oxygen consumption

Question: And the “oxygen uptake efficiency slope (OUES)” value [2]?
Answer: increased oxygen uptake efficiency slope

Question: And the “oxygen consumption (VO2) at each exercise intensity” value (single ingestion (day 1) and consecutive ingestion (day 8), 3 hours after ingestion, exercise intensities 50-100% HR, compared with no intake of kaempferol (placebo))?
Answer: increased oxygen consumption at all exercise intensities
